Data on five molecules can be found in patent US5591717A, “Branched apogenic peptide for inducing apoptosis” (priority 1994, dated 1997).

Data set [1] has as its system HL60 cells. Briefly: Augmentation by 1,25-dihydroxy vitamin D3 in HL60 cells, microscopy. The conditions noted are these: simultaneous exposure. The class given is cell-based, human. Here is the method: At 1 μM, 1,25-dihydroxy vitamin D3 will drive differentiation of HL60 cells into monocytes; overt differentiation requires 72-96 hours. Accordingly, HL60 cell cultures were simultaneously exposed to a subapoptotic dose of 1 μM CSarma VR5-BAP and 0.5 or 1.0 μM 1, 25-dihydroxy vitamin D3. The cultures were then evaluated by inverted phase microscopy of tissue culture plates and by light microscopic examination of Wright-Giemsa stained cytocentrifuge preparations.

The test system of data set [2] is HL60 cells. Briefly: Sodium butyrate or retinoic acid with sub-apoptotic CSarma VR5-BAP in HL60 cells. In kind it is cell-based, human. The conditions noted are these: 1 μM agent, 2, 3 and 5 days. Here is the method: At 1 μM sodium butyrate and retinoic acid induce monocytic and granulocytic differentiation in HL60 cells, respectively. Neither the sodium butyrate nor retinoic acid is specifically associated with calcium transport. HL60 cells were simultaneously exposed to such […] dose (1 μM) of CSarma VR5-BAP and to either 1 μM sodium butyrate or 1 μM retinoic acid. Cells were cultured for 5 days and evaluated by inverted phase contrast microscopy and light microscopic examination of Wright-Giemsa-Stained cytrocentrifuge preparation. Samples were taken at 2, 3 and 5 days.

Data set [3] has as its system HL60, K562, 3201 and H9 cells. The method, then:
A commonly used anti-apogenic compound is zinc. HL60, K562, 3201 and H9 cells were exposed to 1, 2, 4, 7.9, 15.7, 31.3, 62.5, 125, 250, 500, and 1000 μM zinc sulfate and 6 μM CSarma VR5-BAP. The cells were cultured for 24 and 8 hours.

In data set [4] the test system is HL60 cell cultures. Briefly: Heparin reversal of CSarma VR5-BAP effect in HL60 cells, MTT and INDO-1. In kind it is cell-based, human. Here is the method:
HL60 cell cultures were treated with 6 μM CSarma VR5-BAP and 0.3 U/ml, or 3.0 U/ml heparin. Control cell cultures received either no polypeptide or 0.3 U/ml or 3.0 U/ml heparin. Cell growth was determined at 1 and 2 days as assessed by MTT cell proliferation/viability assay. The mobilization of intracellular calcium was assessed by INDO-1 staining and anchored cell fluorescent microscopy.

As for `C=C1/C(=C\C=C2/CCC[C@]3(C)[C@@H]([C@H](C)CCCC(C)(C)O)CC[C@@H]23)C[C@@H](O)C[C@@H]1O` [1,25-dihydroxy vitamin D3, 1,25-dihydroxycholecalciferol], the “increase of sensitivity of HL60 cells to CSarma VR5-BAP” value in data set [1] is given as “six-fold”.
For `CC1=C(/C=C/C(C)=C/C=C/C(C)=C/C(=O)O)C(C)(C)CCC1` [retinoic acid], the “apoptosis on simultaneous treatment with 1 μM CSarma VR5-BAP” value in data set [2] was “did not cause apoptosis”.
Same read-out and setting: the value for `CCCC(=O)[O-].[Na+]` [sodium butyrate] was “did not cause apoptosis”.
As for `O=S(=O)([O-])[O-].[Zn+2]` [zinc sulfate], the “concentration with direct toxicity” value in data set [3] is recorded as “greater than 31.3 μM”. Besides, the “reversal of CSarma VR5-BAP induced apoptosis” value in data set [3] (1 to 1000 μM zinc sulfate with 6 μM CSarma VR5-BAP) is recorded as “failed to reverse”.
With heparin, the “mobilization of intracellular calcium” value in data set [4] (INDO-1 staining) is recorded as “prevents mobilization of intracellular calcium”. Also, in data set [4] (MTT, 1 and 2 days), the “concentration inhibiting the growth suppression of 6 μM CSarma VR5-BAP” value is listed as “greater than or equal to 0.3 U/ml”.
